Data set [1] relates to hMSCs. Kind of data set: alamarBlue metabolic assay of hMSC proliferation after BIO dosing (Example 1). Format: cell-based, human. To be noted: for effect on hMSC population (alamarBlue): 24 hr dosing. Here is the method:
FIG. 1. Proliferative effect of BIO after 24 hr dosing; 0 μM (-□-, grey squares), 2 μM (-∘-, open circles), 5 μM (-▴-, black triangles), 10 μM (-X-, black crosses). Proliferation was assessed using alamarBlue metabolic assay. Error bars shown are standard error (n=3).
The small molecule GSK3β inhibitor 6-bromoindirubin-3′-oxime was synthesized as previously described (Polychronopoulos et al., J Med Chem. 2004; 47(4):935-46). It is also commercially available (such as from Sigma). The molecule was solubilized in dimethyl sulfoxide (DMSO) to specified concentrations. hMSCs were plated at a density of 5,000 cell/cm2 in 24-well tissue culture plates. Cells were allowed to become adherent for a period of 24 hrs before BIO was introduced. 10 μL of BIO in DMSO were added to 1 mL of culture media so that the final concentrations of 2, 5, and 10 μM were achieved. […] Culture continued over 33 days with media being replaced every three days. An alamarBlue cell viability assay was performed on days: −1 (before BIO treatment), 0, 4, 8, 12, 14, 17, 23, 26, 28, and 33. Cell population was normalized to alamarBlue readings after the initial period of 24 hr BIO dosing.

In data set [2] the test system is hMSCs. In words: Media induced differentiation of BIO-treated hMSCs (histology and Cbfa1, Sox9, PPARγ expression). Format: cell-based, human. Here is the method:
Dev Cell. […] After 24 hrs cell media was replaced and cells were allowed to proliferate over three weeks. After three weeks BIO-treated hMSCs were cultured for three weeks in standard differentiation-inducing media (FIG. 6a). For osteogenic differentiation hMSCs were grown in normal growth media with osteogenic supplements (100 nM dexamethasone, 10 mM β-glycerophosphate, 50 μM ascorbic acid-2-phosphate). […] Differentiated two-dimensional cell cultures were fixed in 24-well tissue culture plates for 48 hrs in 4% paraformaldehyde and the monolayers were stained for mineralization (von Kossa, osteogenic), or the presence of lipid droplets (oil red o, adipogenic). Undifferentiated cultures were also stained as negative controls. Images were taken on a Motic AE20 inverted light microscope using a Canon EOS Rebel T2i with an eyepiece modification.
For chondrogenic differentiation, hMSCs were seeded at a density of 5,000 cell/cm^2 in T-75 tissue culture flasks, allowed to become adherent, and treated with BIO containing growth media for 24 hrs. After 24 hrs, cell media was replaced and cells were allowed to proliferate over three weeks (FIG. 6a). […] Pellet cultures were fixed for 48 hrs in 4% paraformaldehyde, cryosectioned, and stained for glycosaminoglycan production (toluidine blue, chondrogenic). Stained sections were imaged as described above.
RT-PCR was used to assess gene expression of hMSCs over time. At days: 0 (before BIO treatment), 1, 3, 6, 19, 29, 34, 37, and 41, samples were lysed and total RNA was isolated (ENZA Total RNA Kit, Omega). Reverse transcription was performed using the iScript cDNA Synthesis Kit (Bio-Rad). The reverse transcription reaction was incubated at 25° C. for 5 min, 42° C. for 30 min, and terminated at 85° C. for 5 min. PCR was performed using a CFX96 Real-Time PCR System (Bio-Rad), monitoring sybrgreen products (SsoFastEvaGreen Master Mix, Bio-Rad). Primers for β-actin, sex determining region Y-box 2 (Sox2), Nanog homobox (Nanog), and octamer-binding transcription factor 4 (Oct4), core-binding factor subunit alpha-1 (Cbfa1, also known as Runx2), sex determining region Y-box 9 (Sox9), and peroxisome proliferator-activated receptor gamma (PPARγ) were used (Table 2). The PCR parameters used were as follows: hold at 95° C. for 5 min, followed by 40 cycles of: 95° C. for 15 sec denaturation, 60° C. (β-actin, Sox2, Sox9), or 57° C. (Nanog, Oct4, Cbfa1), or 55° C. (PPARγ) for 60 sec annealing, and 72° C. for 20 sec extension. Threshold cycle (CT) analysis was used to quantify PCR products normalized to the cellular housekeeping gene β-actin. Relative gene quantification was performed using the Pfaffl Method, taking into account the variation between primer efficiencies.

The mark [3] stands for this setting: 5 μM BIO, adipogenic-differentiated hMSCs.
[4] abbreviates: 5 μM BIO, osteogenic differentiated hMSCs.

With `O=C1Nc2cc(Br)ccc2/C1=C1/Nc2ccccc2/C1=N\O` [BIO, 6-bromoindirubin-3′-oxime], the “effect on hMSC population (alamarBlue)” value in data set [1] (BIO 2-5 μM) is given as “dose dependent proliferative response”. Besides, the “effect on hMSC population (alamarBlue)” value in data set [1] (BIO concentrations below 2 μM) is on record as “did not have a noticeable effect”. Moreover, in data set [1] (continual dosing with BIO, parallel study (data not shown)), the “effect of continual dosing on hMSCs” value was “complete cell death by day 5”. Also, the “histological analysis of differentiation (von Kossa, toluidine blue, oil red o), BIO-treated versus untreated” value in data set [2] (5 μM BIO 24 hrs, 21 days proliferation, 3 weeks differentiation media) is given as “uniform mineralization”. Also, in data set [2] (setting [3]), the “PPARγ expression over undifferentiated controls” value is listed as 31.2 fold and the “increase in PPARγ expression compared to differentiated non-BIO-treated (0 μM) controls” value is recorded as 5.0 fold. In addition, the “Sox9 expression compared with undifferentiated controls” value in data set [2] (5 μM BIO, chondrogenic-differentiated hMSCs, not statistically significant) is given as 0.6 fold. In data set [2] (setting [4]), the “Cbfa1 expression over undifferentiated controls” value worked out at 3.9 fold and the “increase in Cbfa1 expression compared to differentiated non-BIO-treated (0 μM) controls” value is listed as 2.1 fold.

Source of the values: patent US9193954B2, “Methods and compositions for mesenchymal stem cell proliferation” (priority 2011, dated 2015).
